Laboratory results from article PMC7739374 (ACS chemical biology, 2020).
Where a SMILES comes first, the peptide text is derived from it. [ ]: non-standard residue; d: D form. β3hI = CC[C@H](C)[C@H](N)CC(=O)O; β3hE = N[C@@H](CCC(=O)O)CC(=O)O; β3hA = C[C@H](N)CC(=O)O

Experiments:
[1] = Tryptic digestion, HPLC-based proteolytic stability assay; assay type: in vitro ADME
[2] = system: Ras activation and ERK signaling; conditions: cited from earlier work
[3] = system: recombinant H-Ras; conditions: within range of full-length Sos; cited from earlier work
[4] = system: trypsin; experiment: Tryptic digestion, HPLC-based proteolytic stability assay; assay type: in vitro ADME
[5] = system: H358 (K-Ras G12C) lung cancer cells; experiment: MTT cell viability; assay type: cell-based; conditions: 72 hours
[6] = system: proteinase K; assay type: in vitro ADME

half-life ([1]; trypsin) [h]	half-life ([1]; isolated enzyme trypsin) [h]	fold increase in half-life, tryptic digestion [4]	fold increase in half-life with proteinase K [6] [fold]	Compound	modulation of Ras activation and ERK signaling [2]	affinity for recombinant H-Ras [3]	effect on cell viability, H358 [5]
3.1	–	–	–	CC[C@H](C)[C@H](NC(=O)CN1C/C=C/CCC(=O)N[C@@H](Cc2ccccc2)C(=O)N[C@@H](CCC(=O)O)C1=O)C(=O)N[C@@H](Cc1ccc(O)cc1)C(=O)N[C@@H](CCCNC(=N)N)C(=O)N[C@@H](CC(C)C)C(=O)N[C@@H](CCC(=O)O)C(=O)N[C@@H](CC(C)C)C(=O)N[C@@H](CC(C)C)C(=O)N[C@@H](CCCCN)C(=O)N[C@@H](C)C(=O)N[C@@H](CCC(=O)O)C(=O)N[C@@H](CCC(=O)O)C(=O)N[C@@H](C)C(=O)N[C@@H](CC(N)=O)C(N)=O [HBSSOS]	concentration-dependent manner	micromolar affinity	–
–	17.6	~ 6 fold	360	CC[C@H](C)[C@@H](CC(=O)N[C@@H](Cc1ccc(O)cc1)C(=O)N[C@@H](CCCNC(=N)N)C(=O)N[C@@H](CC(C)C)C(=O)N[C@@H](CCC(=O)O)CC(=O)N[C@@H](CC(C)C)C(=O)N[C@@H](CC(C)C)C(=O)N[C@@H](CCCCN)C(=O)N[C@@H](C)CC(=O)N[C@@H](CCC(=O)O)C(=O)N[C@@H](CCC(=O)O)C(=O)N[C@@H](C)C(=O)N[C@@H](CC(N)=O)C(N)=O)NC(=O)CN1C/C=C/CCCC(=O)N[C@@H](Cc2ccccc2)C(=O)N[C@@H](CCC(=O)O)C1=O [α3βHBSSOS]	–	–	impacts viability of H358 cells at higher concentrations
–	13.6	8.5 fold	–	CC[C@H](C)[C@@H](CC(=O)N[C@@H](Cc1ccc(O)cc1)C(=O)N[C@@H](CCCNC(=N)N)C(=O)N[C@@H](CC(C)C)C(=O)N[C@@H](CCC(=O)O)CC(=O)N[C@@H](CC(C)C)C(=O)N[C@@H](CC(C)C)C(=O)N[C@@H](CCCCN)C(=O)N[C@@H](C)CC(=O)N[C@@H](CCC(=O)O)C(=O)N[C@@H](CCC(=O)O)C(=O)N[C@@H](C)C(=O)N[C@@H](CC(N)=O)C(N)=O)NC(=O)CNC(=O)[C@H](CCC(=O)O)NC(=O)[C@H](Cc1ccccc1)NC(C)=O [α3βUNCSOS] (Ac-FEG[β3hI]YRL[β3hE]LLK[β3hA]EEAN-NH2; N-terminus and C-terminus assumed)	–	–	–
1.6	–	–	–	CC[C@H](C)[C@H](NC(=O)CNC(=O)[C@H](CCC(=O)O)NC(=O)[C@H](Cc1ccccc1)NC(C)=O)C(=O)N[C@@H](Cc1ccc(O)cc1)C(=O)N[C@@H](CCCNC(=N)N)C(=O)N[C@@H](CC(C)C)C(=O)N[C@@H](CCC(=O)O)C(=O)N[C@@H](CC(C)C)C(=O)N[C@@H](CC(C)C)C(=O)N[C@@H](CCCCN)C(=O)N[C@@H](C)C(=O)N[C@@H](CCC(=O)O)C(=O)N[C@@H](CCC(=O)O)C(=O)N[C@@H](C)C(=O)N[C@@H](CC(N)=O)C(N)=O [αUNCSOS] (Ac-FEGIYRLELLKAEEAN-NH2; N-terminus and C-terminus assumed)	–	–	–
